Results reported in patent EP0457318B1, “Alpha-Oxopyrrolo[2,3-b]indole acetic acids, esters, amides and related analogs, a process for their preparation and their use as medicaments” (HOECHST-ROUSSEL PHARMACEUTICALS INCORPORATED, priority 1990, dated 1991).
Where two headings read alike, the source gives them in different places.

How the values were obtained:
[1] = target: T1, Brain AChE (Rattus norvegicus, UniProt P37136); test: In vitro inhibition of acetylcholinesterase activity in rat striatum (modified Ellman method); type: biochemical
T1 construct: corpora striata dissected free, weighed and homogenized in 19 volumes; from tissue; host or cells: rat corpora striata homogenate (male Wistar rats)
Description: Cholinesterases are found throughout the body, both in the brain and in serum. However, only brain acetylcholinesterase (AChE) distribution is correlated with central cholinergic innervation. […] We have determined in vitro inhibition of acetylcholinesterase activity in rat striatum according to the method described below.
In Vitro Inhibition of Acetylcholinesterase Activity in Rat Striatum
The method described below was used in this invention for assaying anticholinesterase activity. This is a modification of the method of Ellman et al., Biochem. Pharmacol. 7, 88 (1961).
• 1. 0.05 M Phosphate buffer, pH 7.2 • (a) 6.85 g NaH2PO4·H2O/100 ml distilled H2O • (b) 13.40 g Na2HPO4·7H2O/100 ml distilled H2O • (c) add (a) to (b) until pH reaches 7.2 • (d) Dilute 1:10 • 2. Substrate in buffer • (a) 198 mg acetylthiocholine chloride (10 mM) • (b) q.s. to 100 ml with 0.05 M NaPO4, pH 7.2 (reagent 1) • 3. DTNB in buffer • (a) 19.8 mg 5,5-dithiobisnitrobenzoic acid (DTNB) (0.5 mM) • (b) q.s. to 100 ml with 0.05M NaPO4, pH 7.2 (reagent 1) • 4. A 2mM stock solution of the test drug is made up in a suitable solvent and q.s. to volume with 0.5 mM DTNB (reagent 3). Drugs are serially diluted (1:10) such that the final concentration (in cuvette) is 10^-4M and screened for activity. If active, IC50 values are determined from the inhibitory activity of subsequent concentrations.
Male Wistar rats are decapitated, brains rapidly removed, corpora striata dissected free, weighed and homogenized in 19 volumes (approximately 7 mg protein/ml) of 0.05 M phosphate buffer, pH 7.2 using a Potter-Elvehjem homogenizer. A 25 microliter aliquot of the homogenate is added to 1 ml of vehicle or various concentrations of the test drug and preincubated for 10 minutes at 37°C.
Enzyme activity is measured with the Beckman DU-50 spectrophotometer. This method can be used for IC50 determinations and for measuring kinetic constants.
Kinetics Soft-Pac Module #598273 (10) Program #6 Kindata: Source - Vis Wavelength - 412 nm Sipper - none Cuvettes - 2 ml cuvettes using auto 6-sampler Blank - 1 for each substrate concentration Interval time - 15 seconds (15 or 30 seconds for kinetics) Total time - 5 minutes (5 or 10 minutes for kinetics) Plot - yes Span - autoscale Slope - increasing Results - yes (gives slope) Factor - 1 […]
Blank values are determined for each run to control non enzymatic hydrolysis of substrate and these values are automatically substracted by the kindata program available on kinetics soft-pac module. This program also calculates the rate of absorbance change for each cuvette. […]
IC50 values are calculated from log-probit analysis.

[2] = tested on: Scopolamine Induced Memory Deficit; test: Dark Avoidance Assay (reversal of scopolamine induced memory deficit); type: in vivo; conditions: mice, s.c., retest after 24 hours
Method: In this assay mice are tested for their ability to remember an unpleasant stimulus for a period of 24 hours. A mouse is placed in a chamber that contains a dark compartment; a strong incandescent light drives it to the dark compartment, where an electric shock is administered through metal plates on the floor. The animal is removed from the testing apparatus and tested again, 24 hours later, for the ability to remember the electric shock.
If scopolamine, an anticholinergic that is known to cause memory impairment, is administered before an animal's initial exposure to the test chamber, the animal re-enters the dark compartment shortly after being placed in the test chamber 24 hours later. This effect of scopolamine is blocked by an active test compound, resulting in a greater interval before re-entry into the dark compartment.
The results for an active compound are expressed as the percent of a group of animals in which the effect of scopolamine is blocked, as manifested by an increased interval between being placed in the test chamber and re-entering the dark compartment.

[3] = rat striatum homogenate, preincubated 10 minutes at 37°C, 5 mM acetylthiocholine, pH 7.2, read-out: Inhibitory Concentration (IC50) Brain AChE

T1 sequence (P37136 32-614): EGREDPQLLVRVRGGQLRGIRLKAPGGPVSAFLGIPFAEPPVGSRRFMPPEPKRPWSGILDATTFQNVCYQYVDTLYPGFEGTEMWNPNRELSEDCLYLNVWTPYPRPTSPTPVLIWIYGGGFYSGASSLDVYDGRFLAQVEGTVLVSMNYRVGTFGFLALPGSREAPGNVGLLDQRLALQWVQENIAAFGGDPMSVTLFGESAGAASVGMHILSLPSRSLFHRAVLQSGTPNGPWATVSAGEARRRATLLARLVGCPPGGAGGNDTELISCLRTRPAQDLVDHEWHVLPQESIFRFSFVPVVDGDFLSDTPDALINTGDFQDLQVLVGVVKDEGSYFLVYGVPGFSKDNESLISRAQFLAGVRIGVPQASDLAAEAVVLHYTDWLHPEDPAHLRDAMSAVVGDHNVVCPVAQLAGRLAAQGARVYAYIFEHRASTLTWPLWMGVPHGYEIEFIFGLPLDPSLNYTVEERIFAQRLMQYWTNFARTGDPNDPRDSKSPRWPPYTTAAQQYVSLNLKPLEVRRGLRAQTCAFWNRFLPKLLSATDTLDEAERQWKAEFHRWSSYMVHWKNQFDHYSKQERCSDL

In the case of `CCCCOC(=O)C(=O)c1ccc2c(c1)C1(C)CCN(C)C1N2C` (stereo not drawn) [1,2,3,3a,8,8a-Hexahydro-α-oxo-1,3a,8-trimethyl-5-pyrrolo[2,3-b]indole acetic acid, n-butyl ester], the IC50 [1, 3] is reported as 5.7 µM.

Work on `CCCCCOC(=O)C(=O)c1ccc2c(c1)C1(C)CCN(C)C1N2C` (stereo not drawn) [1,2,3,3a,8,8a-Hexahydro-α-oxo-1,3a,8-trimethyl-5-pyrrolo[2,3-b]indole acetic acid, n-pentyl ester] yielded an IC50 [1, 3] of 8 µM.

`CN1CCC2(C)c3cc(C(=O)C(=O)OCCc4ccccc4)ccc3N(C)C12` (stereo not drawn) [1,2,3,3a,8,8a-Hexahydro-α-oxo-1,3a,8-trimethyl-5-pyrrolo[2,3-b]indole acetic acid, phenylethyl ester] was tested, and the “% of Animals with Scopolamine Induced Memory Deficit Reversal” value (“% of Animals” for short) ([2]; dose 0.1 mg/kg of body weight) was 29%, the “% of Animals” value ([2]; dose 0.3 mg/kg of body weight) was 36% and the “% of Animals” value ([2]; dose 1.0 mg/kg of body weight) was 20%. The IC50 [1] was 9.1 µM.

With `CC[C@@H]1C(=O)OC[C@@H]1Cc1cncn1C` [Pilocarpine, reference compound] the “% of Animals” value ([2]; dose 5.0 mg/kg of body weight) was 13%.

With `Nc1c2c(nc3ccccc13)CCCC2` [Tacrine, reference compound] the “% of Animals” value ([2]; dose 0.63 mg/kg of body weight) was 13%.

For `CN1CCC2(C)c3cc(C(=O)C(=O)OCc4ccccc4)ccc3N(C)C12` (stereo not drawn) [1,2,3,3a,8,8a-Hexahydro-α-oxo-1,3a,8-trimethyl-5-pyrrolo[2,3-b]indole acetic acid, phenylmethyl ester], the IC50 [1, 3] was 4.4 µM.
